In PubChem BioAssay AID602178 (NMMLSC, 2012) one finds EC50 data, which are given here for 1 compound.

Active and inactive are the calls of the source. How the calls were made is not given here.

The test addresses Lethal factor (Bacillus anthracis) (UniProt P15917). Description: Bacillus anthracis LF protease inhibitors, dose response, biochemical, multiplex microsphere, cherry pick 1 compounds (AID 602178). Particulars: multiplex microsphere protease cleavage assay, LF inhibition.

Sequence of Lethal factor (Bacillus anthracis) (P15917 whole entry, looked up): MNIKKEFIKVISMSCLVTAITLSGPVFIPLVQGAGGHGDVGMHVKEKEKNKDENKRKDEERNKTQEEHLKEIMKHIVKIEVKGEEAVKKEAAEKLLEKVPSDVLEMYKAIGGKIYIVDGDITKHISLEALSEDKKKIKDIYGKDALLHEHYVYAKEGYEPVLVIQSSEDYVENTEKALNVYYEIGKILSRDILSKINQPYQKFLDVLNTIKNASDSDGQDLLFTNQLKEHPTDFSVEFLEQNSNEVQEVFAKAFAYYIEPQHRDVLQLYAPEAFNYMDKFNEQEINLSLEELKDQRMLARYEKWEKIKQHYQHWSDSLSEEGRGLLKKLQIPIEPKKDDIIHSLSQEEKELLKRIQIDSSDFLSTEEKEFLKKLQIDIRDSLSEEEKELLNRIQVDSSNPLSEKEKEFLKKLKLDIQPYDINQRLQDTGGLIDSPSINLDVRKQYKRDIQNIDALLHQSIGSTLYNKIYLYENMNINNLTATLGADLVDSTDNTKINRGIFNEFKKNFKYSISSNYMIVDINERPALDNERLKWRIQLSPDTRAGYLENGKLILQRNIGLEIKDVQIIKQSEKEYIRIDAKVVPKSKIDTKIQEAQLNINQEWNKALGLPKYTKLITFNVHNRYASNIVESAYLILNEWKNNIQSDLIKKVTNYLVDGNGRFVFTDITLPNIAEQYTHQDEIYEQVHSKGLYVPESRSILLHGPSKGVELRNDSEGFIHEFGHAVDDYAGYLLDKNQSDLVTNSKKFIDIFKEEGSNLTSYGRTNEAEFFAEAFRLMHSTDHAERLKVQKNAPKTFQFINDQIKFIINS

Usually EC50 stands for the concentration needed to bring the measured effect to its halfway point. As for `Oc1[nH]c(N=C2N=c3ccccc3=N2)c2ccccc12`, the EC50 is > 20 µM (inactive).
